{"source": "patent US10383815B2", "about": "“Method and compositions for improving selective catabolysis in cells of keratin surfaces” (ELC Management LLC, priority 2012, dated 2019)", "tested_on": "PER1 gene expression in skin cells", "assay": "PER1 gene expression in skin cells", "assay_type": "cell-based", "text": "A specific example includes a botanical extract from Echinacea purpurea sold by Symrise under the brand name Symfinity™ 1298 which is an extract of Echinacea purpurea which is standardized during the extraction process to contain about 3% by weight of the total extract composition of cichoric acid. Echinacea extracts from different sources will vary in cichoric acid content, and as such will yield variable results in induction of PER1 gene expression. […] Moreover, each species of Echinacea will differ in content of phenolic and cichoric acids. Ethanolic extract of the roots of Echinacea purpura will provide more cichoric acid than ethanolic extracts of Echineacea angustifolia or Echinacea pallida. The content of active ingredients in any extract is also very dependent on the method of extraction. For example, it is known that in many cases enzymatic browning during the extraction process will reduce the phenolic acid content of the resulting extract.", "data": [{"compound": "O=C(/C=C/c1ccc(O)c(O)c1)O[C@@H](C(=O)O)[C@@H](O)C(=O)O", "note": "[caftaric acid]", "values": [{"measurement": "PER1 gene expression", "result": "does not increase"}]}]}
